Test: Plasma pharmacokinetics after a single oral dose of rucaparib 600 mg in patients with advanced solid tumors, by hepatic function group
Details: for AUC(0-inf) / AUC(0-t) / Cmax / Vd/F / half-life / Tmax: human, plasma, 600 mg; for AUC(0-t): AUC0–last; for Vd/F: Vz/F
[1] = ANOVA, NCI-ODWG moderate hepatic impairment vs normal hepatic function
[2] = Child–Pugh mild hepatic impairment, single oral rucaparib 600 mg
[3] = Child–Pugh moderate hepatic impairment, single oral rucaparib 600 mg
[4] = Child–Pugh severe hepatic impairment, single oral rucaparib 600 mg
[5] = NCI-ODWG moderate hepatic impairment, single oral rucaparib 600 mg
[6] = NCI-ODWG normal hepatic function, single oral rucaparib 600 mg
[7] = oral, Geometric LS means, ANOVA, NCI-ODWG moderate hepatic impairment (n = 8)
[8] = oral, Geometric LS means, ANOVA, NCI-ODWG normal hepatic function (n = 8)
[9] = po, GM, Child–Pugh mild hepatic impairment, single oral rucaparib 600 mg
[10] = po, GM, Child–Pugh moderate hepatic impairment, single oral rucaparib 600 mg
[11] = po, GM, Child–Pugh severe hepatic impairment, single oral rucaparib 600 mg
[12] = po, GM, NCI-ODWG moderate hepatic impairment, single oral rucaparib 600 mg
[13] = po, GM, NCI-ODWG normal hepatic function, single oral rucaparib 600 mg
[14] = po, Mean (SD), Child–Pugh mild hepatic impairment, single oral rucaparib 600 mg
[15] = po, Mean (SD), Child–Pugh moderate hepatic impairment, single oral rucaparib 600 mg
[16] = po, Mean (SD), Child–Pugh severe hepatic impairment, single oral rucaparib 600 mg
[17] = po, Mean (SD), NCI-ODWG moderate hepatic impairment, single oral rucaparib 600 mg
[18] = po, Mean (SD), NCI-ODWG normal hepatic function, single oral rucaparib 600 mg
[19] = po, Median (min–max), Child–Pugh mild hepatic impairment, single oral rucaparib 600 mg
[20] = po, Median (min–max), Child–Pugh moderate hepatic impairment, single oral rucaparib 600 mg
[21] = po, Median (min–max), Child–Pugh severe hepatic impairment, single oral rucaparib 600 mg
[22] = po, Median (min–max), NCI-ODWG moderate hepatic impairment, single oral rucaparib 600 mg
[23] = po, Median (min–max), NCI-ODWG normal hepatic function, single oral rucaparib 600 mg
[24] = linear regression of log-transformed PK parameter on hepatic function parameter (NCI-ODWG)

Method: In Part 1, patients received a single oral dose of rucaparib 600 mg on day 1; PK samples were collected and safety monitored through day 7.
Sample collection, processing, and shipping were conducted according to standardized protocols shared across study sites. Plasma samples were collected for PK analysis at the predose assessment and at 1, 2, 3, 4, 8, 12, 24, 48, 72, 96, 120, and 144 h postdose. A predose urine sample was collected less than 12 h prior to study drug administration. Total urine was collected 0–12 h and 12–24 h postdose. Total (bound and unbound) concentrations of rucaparib and its metabolite M324 in plasma and urine samples were determined by Q Squared Solutions BioSciences (Ithaca, NY, USA) using validated liquid chromatography mass spectrometry/mass spectrometry methods. Stable deuterium-labeled analytes were used as internal standards. The assay calibration ranges for plasma samples were 5–10,000 ng/mL for rucaparib and 1–1000 ng/mL for M324 with lower limits of quantification (LLOQ) of 5.00 and 1.00 ng/mL, respectively. For urine samples, the calibration range was 500–50,000 ng/mL for both rucaparib and M324, with a LLOQ of 500 ng/mL for both analytes. The precision was within 9.3% CV, and the accuracy was within ± 6.2%.
PK parameters were estimated from the concentration–time profiles. Actual elapsed time after dosing was used to estimate plasma PK parameters based on noncompartmental methods using Phoenix® WinNonlin® version 8.1.0 (Certara USA, Inc., Princeton, NJ, USA). […] Exploratory PK parameters for M324 calculated based on plasma and urine concentration-time data were Cmax, AUC0–last, AUC0–inf, t1/2, tmax, Ae0–24, and CLR, as data allowed.
PK parameters were calculated by noncompartmental analysis, analyzed using descriptive statistics, and presented by hepatic functional status. Analysis of variance (ANOVA) was used to compare PK parameters (e.g., Cmax, AUC0–last, and AUC0–inf) between the normal hepatic function group and the moderate hepatic impairment group per NCI-ODWG criteria. PK values were log-transformed before analysis. Baseline covariates (e.g., creatinine clearance [CLcr], sex, age, BMI, and ECOG PS) were tested for any significant effect (P value < 0.05). Geometric least-squares means were used to calculate the ratios of the PK parameters in the hepatic impairment group to those in the control group, along with 90% confidence intervals (CIs). The Wilcoxon rank-sum test was used to compare tmax values between the two groups, and estimates of the median differences were determined, along with 90% CIs. In addition, the relationships between log-transformed PK parameters (AUC0–last, AUC0–inf, Cmax) for rucaparib and M324 and hepatic function parameters (bilirubin and aspartate aminotransferase [AST]) relevant to the classification of hepatic impairment according to NCI-ODWG were explored by a linear regression approach.

CNCc1ccc(-c2[nH]c3cc(F)cc4c3c2CCNC4=O)cc1 [rucaparib]
AUC0-inf, Geometric mean ratio Moderate/normal (90% CI) [1]: 1.446
AUC0–last, Geometric mean ratio Moderate/normal (90% CI) [1]: 1.335 (0.617–2.891)
Cmax, Geometric mean ratio Moderate/normal (90% CI) [1]: 0.907 (0.605–1.362)
AUC0-inf, Geometric mean ratio Moderate/normal (90% CI) (ANOVA, NCI-ODWG moderate hepatic impairment vs normal hepatic function, listed as Rucaparib): 1.446 (0.668–3.131)
CL/F, GM [2]: 64.0 L/h
CL/F, Mean (SD) [2]: 82.2 (59.5) L/h
CL/F, Median (min–max) [2]: 68.3 (26.4–180) L/h
CL/F, GM [3]: 23.7 L/h
CL/F, Mean (SD) [3]: 25.1 (8.62) L/h
CL/F, Median (min–max) [3]: 28.4 (14.6–34.6) L/h
CL/F, GM [4]: 22.2 L/h
CL/F, Mean (SD) [4]: 39.6 (46.4) L/h
CL/F, Median (min–max) [4]: 39.6 (6.79–72.4) L/h
CL/F, GM [5]: 30.2 L/h
CL/F, Mean (SD) [5]: 48.1 (56.8) L/h
CL/F, Median (min–max) [5]: 29.1 (6.79–180) L/h
CL/F, GM [6]: 43.7 L/h
CL/F, Mean (SD) [6]: 55.7 (42.7) L/h
CL/F, Median (min–max) [6]: 33.1 (15.9–133) L/h
AUC(0-inf) (oral, AUC0-inf, Geometric LS means, ANOVA, NCI-ODWG moderate hepatic impairment (n = 8)): 19900 ng·h/mL
AUC(0-inf) (oral, AUC0-inf, Geometric LS means, ANOVA, NCI-ODWG normal hepatic function (n = 8)): 13700 ng·h/mL
AUC(0-t) [7]: 17500 ng·h/mL
AUC(0-t) [8]: 13100 ng·h/mL
Cmax [7]: 583 ng/mL
Cmax [8]: 642 ng/mL
AUC(0-inf) (po, AUC0–inf, GM, Child–Pugh mild hepatic impairment, single oral rucaparib 600 mg): 9370 ng·h/mL
AUC(0-inf) (po, AUC0–inf, GM, Child–Pugh moderate hepatic impairment, single oral rucaparib 600 mg): 25300 ng·h/mL
AUC(0-inf) (po, AUC0–inf, GM, Child–Pugh severe hepatic impairment, single oral rucaparib 600 mg): 27100 ng·h/mL
AUC(0-inf) (po, AUC0–inf, GM, NCI-ODWG moderate hepatic impairment, single oral rucaparib 600 mg): 19900 ng·h/mL
AUC(0-inf) (po, AUC0–inf, GM, NCI-ODWG normal hepatic function, single oral rucaparib 600 mg): 13700 ng·h/mL
AUC(0-inf) (po, AUC0–inf, Mean (SD), Child–Pugh mild hepatic impairment, single oral rucaparib 600 mg): 11900 ng·h/mL
AUC(0-inf) (po, AUC0–inf, Mean (SD), Child–Pugh moderate hepatic impairment, single oral rucaparib 600 mg): 26800 ng·h/mL
AUC(0-inf) (po, AUC0–inf, Mean (SD), Child–Pugh severe hepatic impairment, single oral rucaparib 600 mg): 48300 ng·h/mL
AUC(0-inf) (po, AUC0–inf, Mean (SD), NCI-ODWG moderate hepatic impairment, single oral rucaparib 600 mg): 29000 ng·h/mL
AUC(0-inf) (po, AUC0–inf, Mean (SD), NCI-ODWG normal hepatic function, single oral rucaparib 600 mg): 17000 ng·h/mL
AUC(0-inf) (po, AUC0–inf, Median (min–max), Child–Pugh mild hepatic impairment, single oral rucaparib 600 mg): 8780 ng·h/mL
AUC(0-inf) (po, AUC0–inf, Median (min–max), Child–Pugh moderate hepatic impairment, single oral rucaparib 600 mg): 21100 ng·h/mL
AUC(0-inf) (po, AUC0–inf, Median (min–max), Child–Pugh severe hepatic impairment, single oral rucaparib 600 mg): 48300 ng·h/mL
AUC(0-inf) (po, AUC0–inf, Median (min–max), NCI-ODWG moderate hepatic impairment, single oral rucaparib 600 mg): 20600 ng·h/mL
AUC(0-inf) (po, AUC0–inf, Median (min–max), NCI-ODWG normal hepatic function, single oral rucaparib 600 mg): 18100 ng·h/mL
AUC(0-t) [9]: 8910 ng·h/mL
AUC(0-t) [10]: 22500 ng·h/mL
AUC(0-t) [11]: 23900 ng·h/mL
AUC(0-t) [12]: 17500 ng·h/mL
AUC(0-t) [13]: 13100 ng·h/mL
AUC(0-t) [14]: 11600 ng·h/mL
AUC(0-t) [15]: 24100 ng·h/mL
AUC(0-t) [16]: 42200 ng·h/mL
AUC(0-t) [17]: 25500 ng·h/mL
AUC(0-t) [18]: 16200 ng·h/mL
AUC(0-t) [19]: 8580 ng·h/mL
AUC(0-t) [20]: 18400 ng·h/mL
AUC(0-t) [21]: 42200 ng·h/mL
AUC(0-t) [22]: 17800 ng·h/mL
AUC(0-t) [23]: 17700 ng·h/mL
Cmax [9]: 550 ng/mL
Cmax [10]: 657 ng/mL
Cmax [11]: 692 ng/mL
Cmax [12]: 583 ng/mL
Cmax [14]: 604 ng/mL
Cmax [15]: 694 ng/mL
Cmax [16]: 827 ng/mL
Cmax [17]: 658 ng/mL
Cmax [18]: 685 ng/mL
Cmax [19]: 590 ng/mL
Cmax [20]: 762 ng/mL
Cmax [21]: 827 ng/mL
Cmax [22]: 471 ng/mL
Cmax [23]: 665 ng/mL
Vd/F [9]: 2320 L
Vd/F [10]: 1460 L
Vd/F [11]: 1530 L
Vd/F [12]: 1960 L
Vd/F [13]: 1650 L
Vd/F [14]: 3340 L
Vd/F [15]: 1660 L
Vd/F [16]: 2700 L
Vd/F [17]: 2840 L
Vd/F [18]: 2220 L
Vd/F [19]: 2130 L
Vd/F [20]: 1280 L
Vd/F [21]: 2700 L
Vd/F [22]: 2190 L
Vd/F [23]: 1270 L
half-life (po, t1/2, GM, Child–Pugh mild hepatic impairment, single oral rucaparib 600 mg): 25.2 h
half-life (po, t1/2, GM, Child–Pugh moderate hepatic impairment, single oral rucaparib 600 mg): 42.6 h
half-life (po, t1/2, GM, Child–Pugh severe hepatic impairment, single oral rucaparib 600 mg): 47.8 h
half-life (po, t1/2, GM, NCI-ODWG moderate hepatic impairment, single oral rucaparib 600 mg): 45 h
half-life (po, t1/2, GM, NCI-ODWG normal hepatic function, single oral rucaparib 600 mg): 26.1 h
half-life (po, t1/2, Mean (SD), Child–Pugh mild hepatic impairment, single oral rucaparib 600 mg): 27.5 h
half-life (po, t1/2, Mean (SD), Child–Pugh moderate hepatic impairment, single oral rucaparib 600 mg): 44.8 h
half-life (po, t1/2, Mean (SD), Child–Pugh severe hepatic impairment, single oral rucaparib 600 mg): 47.8 h
half-life (po, t1/2, Mean (SD), NCI-ODWG moderate hepatic impairment, single oral rucaparib 600 mg): 46.7 h
half-life (po, t1/2, Mean (SD), NCI-ODWG normal hepatic function, single oral rucaparib 600 mg): 28.5 h
half-life (po, t1/2, Median (min–max), Child–Pugh mild hepatic impairment, single oral rucaparib 600 mg): 26.6 h
half-life (po, t1/2, Median (min–max), Child–Pugh moderate hepatic impairment, single oral rucaparib 600 mg): 49.9 h
half-life (po, t1/2, Median (min–max), Child–Pugh severe hepatic impairment, single oral rucaparib 600 mg): 47.8 h
half-life (po, t1/2, Median (min–max), NCI-ODWG moderate hepatic impairment, single oral rucaparib 600 mg): 49.3 h
half-life (po, t1/2, Median (min–max), NCI-ODWG normal hepatic function, single oral rucaparib 600 mg): 26.3 h
Tmax [19]: 3.98 h
Tmax [20]: 3.95 h
Tmax [21]: 4.49 h
Tmax [22]: 3.96 h
Tmax [23]: 3.97 h
Slope estimate (90% CI), AUC0-inf vs AST [24]: 0.001 (–0.002 to 0.004)
Slope estimate (90% CI), AUC0-inf vs Bilirubin [24]: 0.003 (–0.014 to 0.020)
Slope estimate (90% CI), AUC0-last vs AST [24]: 0.001 (–0.002 to 0.004)
Slope estimate (90% CI), AUC0-last vs Bilirubin [24]: 0.002 (–0.015 to 0.019)
Slope estimate (90% CI), Cmax vs AST [24]: 0 (–0.002 to 0.001)
Slope estimate (90% CI), Cmax vs Bilirubin [24]: –0.002 (–0.011 to 0.007)
